Measured values as given in US9199965B2, “Benzoimidazole derivatives and pharmaceutical composition comprising the same” (Daewoong Co., Ltd., priority 2005, dated 2015).

What was measured:
[1] = tested on: ICR male mice (PBQ-induced writhing); experiment: PBQ-induced writhing test for analgesic effect; type: in vivo; details: Mus musculus, 1 h, 20 mg/kg oral, one hour before intraabdominal PBQ (0.02%), read-out: % Inhibition (decrease in number of writhes compared to control)
Procedure: A PBQ-induced writhing test was conducted in mice to assay for the analgesic effect of the novel compounds. Five-week-old ICR male mice were treated with PBQ (phenyl-p-quinone, 0.02%). A suspension of 20 mg of test material in 10 mL of physiological saline was used per kg of weight of mice. Test materials in combination with a carrier were orally administered one hour before the intraabdominal injection of PBQ in a dose of 10 mL per kg weight. From 5 min after the injection, individual mice in each test group were measured for numbers of writhes at regular intervals of 10 min. Analgesic effects of test compounds were expressed as percentages of the decrease in number of writhes compared to a control. [% Inhibition=(Control administered with carrier alone−Group administered with test material)/control administered with carrier alone×100]

human vanilloid-1 (hVR1) = biological target: T1, human vanilloid-1 (hVR1) (Homo sapiens, UniProt Q8NER1); experiment: Calcium influx of vanilloid receptor in hVR1-HEK293 cells (capsaicin-induced, Fluo-3/AM); type: cell-based; details: 1 μM capsaicin-induced intracellular calcium influx, read-out: Inhibitory Activity IC50
T1 construct: expressed in transfected cells; host or cells: HEK293 Tet-on (hVR1-HEK293), doxycycline-induced
Procedure: Experiments for calcium influx were performed to measure the activity of the compounds as antagonists.
The cell strain hVR1-HEK293 is the human embryonic kidney (HEK) 293 Tet-on cell transfected with a human vanilloid-1 gene (pTRE2hyg-hVR1, 7.8 kb), which is capable of controlling the expression of VR1 according to the administration of deoxycycline, a tetracycline derivative analog. In a medium supplemented with deoxycycline two days before calcium influx experiments, the cell strain was cultured to induce the expression of VR1. After being grown to a confluency of about 80% in T75 flasks, hVR1-HEK293 was detached from the flask using trypsin. Cells harvested by centrifugation were suspended in a medium supplemented with 1 μg/mL of deoxycycline and diluted to a density of 2-4×10^5 cells/mL, after which a 100 μL aliquot of the cell suspension was added to each well of 96 well black plates. Before the measurement of calcium influx, the cells were incubated for two days at 37° C. in a 5% CO2 incubator.
For use in calcium influx experiments, each compound was dissolved in dimethyl sulfoxide (DMSO).
To measure an intracellular calcium influx, cells were incubated at 37° C. for 90 min in a medium containing the calcium indicator Fluo-3/AM so as to allow the fluorescent dye to penetrate into the cells. Then, the cells were washed three times with D-PBS (Dulbecco's phosphate buffered saline) containing 10 mM HEPES to remove the fluorescent dye which remained outside. 193 μL aliquot of D-PBS was added to each well, followed by the addition of various concentrations of compounds thereto. In order to measure the antagonistic activity of the compounds, calcium influx was induced by treatment with 1 μM capsaicin. The inhibitory effect of each compound on 1 μM capsaicin-induced intracellular calcium influx according to compound concentration was measured using a fluorescent analyzer and the data thus obtained were analyzed on the basis of the Hill's equation.

rat TRPV1 = biological target: T2, rat TRPV1 (Rattus norvegicus, UniProt O35433); experiment: Assay for inhibitory activity against VR1 patch clamp activity (capsaicin current, inside-out patch); type: cell-based; details: 1 μM compound with 10 μM capsaicin; rat TRPV1-transfected HEK293, inside-out patch; relative to capsaicin current before compound
T2 construct: expressed in transfected cells; host or cells: HEK293
Procedure: Each of the compounds synthesized in the examples were dissolved in dimethyl sulfoxide (DMSO) at a concentration of 10 mM. For use in the assay for inhibitory activity against patch clamp activity, the solutions were diluted to a concentration of 1 μM with the same physiological saline as in the pipette solution of Table 1, below.
2) Assay for Inhibitory Activity Against VR1 Patch Clamp Activity
In this experiment, changes in VR1 activity were recorded in current using an electrophysiological technique.
For use in this experiment, a rat TRPV1 cDNA was transfected into a subcultured HEK293 strain with the aid of lipofectamin.
The rat TRPV1 gene-transfected HEK293 cells were detached from the cell culture dishes with trypsin and distributed on a patch clamp recording chamber.
A cover glass slip on the bottom of the patch clamp recording chamber was treated for 15 min or longer with a […] poly-L-lysine solution so that the HEK cells would readily adhere thereto. Cellular membranes were ruptured at room temperature (˜25° C.) from randomly selected HEK cells to perform an inside-out patch clamp technique. 10 μM of capsaicin was fed into the chamber (cytoplasmic side) to activate a capsaicin current through the VR1. When the capsaicin current reached a stable stage, each compound was added along with 10 μM of capsaicin to record the inhibitory activity of the compounds with regard to the current. The inhibition was expressed as percentages.
Detected current was amplified using a Digidata 1200B A/D converter and an Axopatch 1D amplifier (Axon instruments Inc.), and the data were recorded and analyzed with the aid of a computer. The inhibitory activity of each compound was expressed as a percentage relative to the capsaicin current immediately before the administration of each compound.

T1 sequence (Q8NER1 whole entry): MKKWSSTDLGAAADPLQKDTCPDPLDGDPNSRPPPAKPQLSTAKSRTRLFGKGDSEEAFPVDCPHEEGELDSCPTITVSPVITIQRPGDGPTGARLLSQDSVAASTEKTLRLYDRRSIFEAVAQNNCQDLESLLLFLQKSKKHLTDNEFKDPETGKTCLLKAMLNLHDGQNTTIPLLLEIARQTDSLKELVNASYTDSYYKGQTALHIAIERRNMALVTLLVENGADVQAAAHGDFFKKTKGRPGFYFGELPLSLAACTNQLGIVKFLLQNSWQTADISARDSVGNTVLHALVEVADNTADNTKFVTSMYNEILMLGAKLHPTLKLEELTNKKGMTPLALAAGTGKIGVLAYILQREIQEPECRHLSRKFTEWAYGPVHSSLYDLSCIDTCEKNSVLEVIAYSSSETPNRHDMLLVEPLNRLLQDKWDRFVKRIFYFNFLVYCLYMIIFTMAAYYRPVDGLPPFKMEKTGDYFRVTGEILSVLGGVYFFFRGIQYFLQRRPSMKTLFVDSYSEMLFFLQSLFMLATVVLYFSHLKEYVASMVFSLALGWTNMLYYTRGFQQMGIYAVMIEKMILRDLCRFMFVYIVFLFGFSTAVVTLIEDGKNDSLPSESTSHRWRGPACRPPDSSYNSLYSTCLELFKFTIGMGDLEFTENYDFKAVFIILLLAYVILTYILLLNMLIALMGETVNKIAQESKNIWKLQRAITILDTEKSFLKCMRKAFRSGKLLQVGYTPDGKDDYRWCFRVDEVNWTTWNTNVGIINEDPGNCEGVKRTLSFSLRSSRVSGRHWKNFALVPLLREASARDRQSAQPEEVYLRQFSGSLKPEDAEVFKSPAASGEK
T2 sequence (O35433 whole entry): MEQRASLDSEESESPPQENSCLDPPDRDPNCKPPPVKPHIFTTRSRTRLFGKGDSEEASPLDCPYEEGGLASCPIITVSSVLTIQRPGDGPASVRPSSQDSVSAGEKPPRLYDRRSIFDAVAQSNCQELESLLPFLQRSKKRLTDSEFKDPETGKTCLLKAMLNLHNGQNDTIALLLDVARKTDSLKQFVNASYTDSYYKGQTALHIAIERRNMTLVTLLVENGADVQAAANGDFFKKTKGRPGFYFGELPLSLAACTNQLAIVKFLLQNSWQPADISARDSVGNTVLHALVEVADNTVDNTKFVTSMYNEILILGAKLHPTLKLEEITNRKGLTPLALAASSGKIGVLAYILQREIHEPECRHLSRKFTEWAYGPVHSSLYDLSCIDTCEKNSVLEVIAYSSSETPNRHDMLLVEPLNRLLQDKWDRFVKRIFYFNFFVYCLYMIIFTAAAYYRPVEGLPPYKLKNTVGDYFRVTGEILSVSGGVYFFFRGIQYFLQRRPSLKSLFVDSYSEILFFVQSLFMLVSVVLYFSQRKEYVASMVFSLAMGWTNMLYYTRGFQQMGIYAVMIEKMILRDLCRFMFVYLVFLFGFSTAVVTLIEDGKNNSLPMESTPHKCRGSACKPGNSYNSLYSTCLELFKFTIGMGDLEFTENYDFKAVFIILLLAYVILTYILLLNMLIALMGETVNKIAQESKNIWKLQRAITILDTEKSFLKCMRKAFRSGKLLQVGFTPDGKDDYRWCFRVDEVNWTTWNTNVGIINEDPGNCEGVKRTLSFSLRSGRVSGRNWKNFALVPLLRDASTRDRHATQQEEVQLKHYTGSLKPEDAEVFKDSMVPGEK

SMILES: FC(F)(F)c1ccc2nc(-c3ccc(-c4ncccc4Cl)cc3)[nH]c2c1 [Compound 1, 2-[4-(3-Chloropyridin-2-yl)-phenyl]-6-trifluoromethyl-1H-benzoimidazole]
- inhibition in vivo at 20 mg/kg [1]: 33%
- IC50 (human vanilloid-1 (hVR1)): 130 nM
- inhibition at 1 µM (rat TRPV1): 100%

SMILES: CC(C)(C)c1ccc2nc(-c3ccc(-c4ncccc4Cl)cc3)[nH]c2c1 [Compound 3, 6-tert-butyl-2-[4-(3-chloropyridin-2-yl)phenyl]-1H-benzoimidazole]
- inhibition in vivo at 20 mg/kg [1]: 58%
- IC50 (human vanilloid-1 (hVR1)): 61 nM
- inhibition at 1 µM (rat TRPV1): 100%

SMILES: FC(F)(F)c1cc(Cl)c2nc(-c3ccc(-c4ncccc4Cl)cc3)[nH]c2c1 [Compound 6, 4-chloro-2-[4-(3-chloropyridin-2-yl)phenyl]-6-trifluoromethyl-1H-benzoimidazole]
- inhibition in vivo at 20 mg/kg [1]: 33%
- IC50 (human vanilloid-1 (hVR1)): 11 nM
- inhibition at 1 µM (rat TRPV1): 94%

SMILES: Clc1cc2nc(-c3ccc(-c4ncccc4Cl)cc3)[nH]c2cc1Cl [Compound 12, 2-[4-(3-chloropyridin-2-yl)phenyl]-5,6-dichloro-1H-benzoimidazole]
- inhibition in vivo at 20 mg/kg [1]: 35%
- IC50 (human vanilloid-1 (hVR1)): 70 nM

SMILES: CC(C)(C)c1ccc2nc(-c3ccc(-c4ncc(Cl)cc4Cl)cc3)[nH]c2c1 [Compound 25, 6-tert-butyl-2-[4-(3,5-dichloropyridin-2-yl)phenyl]-1H-benzoimidazole]
- inhibition in vivo at 20 mg/kg [1]: 23%
- IC50 (human vanilloid-1 (hVR1)): 100 nM

SMILES: CS(=O)(=O)Nc1ccc(-c2ccc(-c3nc4c(C(F)(F)F)cc(C(F)(F)F)cc4[nH]3)cc2)cc1F [Compound 29, N-[4′-(4,6-bistrifluoromethyl-1H-benzoimidazole-2-yl)-3-fluorobiphenyl-4-yl]methanesulfonamide]
- inhibition in vivo at 20 mg/kg [1]: 41%
- IC50 (human vanilloid-1 (hVR1)): 4 nM
- inhibition at 1 µM (rat TRPV1): 50%

SMILES: FC(F)(F)c1cc(Cl)c2nc(-c3ccc(-c4ncccc4C(F)(F)F)cc3)[nH]c2c1 [Compound 31, 4-chloro-6-trifluoromethyl-2-[4-(3-trifluoromethylpyridin-2-yl)phenyl]-1H-benzoimidazole]
- inhibition in vivo at 20 mg/kg [1]: 35%
- IC50 (human vanilloid-1 (hVR1)): 8 nM
- inhibition at 1 µM (rat TRPV1): 66%

SMILES: FC(F)(F)c1cc(C(F)(F)F)c2nc(-c3ccc(-c4ncccc4C(F)(F)F)cc3)[nH]c2c1 [Compound 33, 4,6-bistrifluoromethyl-2-[4-(3-trifluoromethylpyridin-2-yl)phenyl]-1H-benzoimidazole]
- inhibition in vivo at 20 mg/kg [1]: 31%
- IC50 (human vanilloid-1 (hVR1)): 10 nM
- inhibition at 1 µM (rat TRPV1): 10%

SMILES: FC(F)(F)c1cc(Br)c2nc(-c3ccc(-c4ncccc4C(F)(F)F)cc3)[nH]c2c1 [Compound 36, 4-bromo-6-(trifluoromethyl)-2-(4-(3-(trifluoromethyl)pyridin-2-yl)phenyl)-1H-benzoimidazole]
- inhibition in vivo at 20 mg/kg [1]: 70%
- IC50 (human vanilloid-1 (hVR1)): 94 nM

SMILES: FC(F)(F)c1cccnc1-c1ccc(-c2nc3ccc(Br)cc3[nH]2)cc1 [Compound 37, 6-bromo-2-(4-(3-(trifluoromethyl)pyridin-2-yl)phenyl)-1H-benzoimidazole]
- inhibition in vivo at 20 mg/kg [1]: 50%
- IC50 (human vanilloid-1 (hVR1)): 75 nM

SMILES: CC(C)(C)c1ccc2nc(-c3ccc(-c4ncccc4Cl)cc3F)[nH]c2c1 [Compound 67, 6-tert-butyl-2-[4-(3-chloropyridin-2-yl)-2-fluorophenyl]-1H-benzoimidazole]
- inhibition in vivo at 20 mg/kg [1]: 23%
- IC50 (human vanilloid-1 (hVR1)): 122 nM
- inhibition at 1 µM (rat TRPV1): 80%

SMILES: CC(C)(C)c1ccc2nc(-c3ccc(-c4ncccc4Cl)c4ccccc34)[nH]c2c1 [Compound 105, 6-tert-butyl-2-[4-(3-chloropyridin-2-yl)naphthalen-1-yl]-1H-benzoimidazole]
- inhibition in vivo at 20 mg/kg [1]: 50%
- IC50 (human vanilloid-1 (hVR1)): 24 nM
- inhibition at 1 µM (rat TRPV1): 78%

SMILES: FC(F)(F)c1cnc2nc(-c3ccc(-c4ncccc4Cl)c4ccccc34)[nH]c2c1 [Compound 107, 2-[4-(3-chloropyridin-2-yl)naphthalen-1-yl]-6-trifluoromethyl-1H-imidazo[4,5-b]pyridine]
- inhibition in vivo at 20 mg/kg [1]: 46%
- IC50 (human vanilloid-1 (hVR1)): 17 nM
- inhibition at 1 µM (rat TRPV1): 97%

SMILES: FC(F)(F)c1cc(Cl)c2nc(-c3ccc(-c4ncccc4Cl)cn3)[nH]c2c1 [Compound 138, 3-chloro-6′-(4-chloro-6-trifluoromethyl-1H-benzoimidazole-2-yl)-[2,3′]bipyridine]
- inhibition in vivo at 20 mg/kg [1]: 22%
- IC50 (human vanilloid-1 (hVR1)): 16 nM
- inhibition at 1 µM (rat TRPV1): 73%

SMILES: FC(F)(F)c1cc(C(F)(F)F)c2nc(-c3ccc(-c4ncccc4Cl)cn3)[nH]c2c1 [Compound 139, 6′-(4,6-bistrifluoromethyl-1H-benzoimidazole-2-yl)-3-chloro-[2,3′]bipyridine]
- inhibition in vivo at 20 mg/kg [1]: 26%
- IC50 (human vanilloid-1 (hVR1)): 38 nM
- inhibition at 1 µM (rat TRPV1): 89%

SMILES: FC(F)(F)c1ccc2nc(-c3ccc(-c4ncccc4C(F)(F)F)cn3)[nH]c2c1 [Compound 158, 3-trifluoromethyl-6′-(6-trifluoromethyl-1H-benzoimidazole-2-yl)-[2,3′]bipyridine]
- inhibition in vivo at 20 mg/kg [1]: 53%
- IC50 (human vanilloid-1 (hVR1)): 14 nM
- inhibition at 1 µM (rat TRPV1): 69%

SMILES: FC(F)(F)c1cc(C(F)(F)F)c2nc(-c3ccc(-c4ncccc4C(F)(F)F)cn3)[nH]c2c1 [Compound 162, 6′-(4,6-bistrifluoromethyl-1H-benzoimidazole-2-yl)-3-trifluoromethyl-[2,3′]bipyridine]
- inhibition in vivo at 20 mg/kg [1]: 28%
- IC50 (human vanilloid-1 (hVR1)): 14 nM
- inhibition at 1 µM (rat TRPV1): 99%

SMILES: FC(F)(F)c1cccnc1-c1ccc(-c2nc3cc(Cl)c(Cl)cc3[nH]2)nc1 [Compound 163, 6′-(5,6-dichloro-1H-benzoimidazole-2-yl)-3-trifluoromethyl-[2,3′]bipyridine]
- inhibition in vivo at 20 mg/kg [1]: 41%
- IC50 (human vanilloid-1 (hVR1)): 15 nM

SMILES: FC(F)(F)c1cc(Br)c2nc(-c3ccc(-c4ncccc4C(F)(F)F)cn3)[nH]c2c1 [Compound 164, 4-bromo-6-(trifluoromethyl)-2-(5-(3-(trifluoromethyl)pyridin-2-yl)pyridin-2-yl)-1H-benzoimidazole]
- inhibition in vivo at 20 mg/kg [1]: 53%
- IC50 (human vanilloid-1 (hVR1)): 9 nM

SMILES: FC(F)(F)c1cccnc1-c1ccc(-c2nc3ccc(Br)cc3[nH]2)nc1 [Compound 165, 6-bromo-2-(5-(3-(trifluoromethyl)pyridin-2-yl)pyridin-2-yl)-1H-benzoimidazole]
- inhibition in vivo at 20 mg/kg [1]: 60%
- IC50 (human vanilloid-1 (hVR1)): 28 nM
